According to BindingDB's records for doi:10.7270/Q27H1H0J (Srmlsc, 2008):

Biological target: T1, M1 family aminopeptidase (Plasmodium falciparum (isolate FcB1 / Columbia), UniProt O96935)
T1 sequence (O96935 whole entry): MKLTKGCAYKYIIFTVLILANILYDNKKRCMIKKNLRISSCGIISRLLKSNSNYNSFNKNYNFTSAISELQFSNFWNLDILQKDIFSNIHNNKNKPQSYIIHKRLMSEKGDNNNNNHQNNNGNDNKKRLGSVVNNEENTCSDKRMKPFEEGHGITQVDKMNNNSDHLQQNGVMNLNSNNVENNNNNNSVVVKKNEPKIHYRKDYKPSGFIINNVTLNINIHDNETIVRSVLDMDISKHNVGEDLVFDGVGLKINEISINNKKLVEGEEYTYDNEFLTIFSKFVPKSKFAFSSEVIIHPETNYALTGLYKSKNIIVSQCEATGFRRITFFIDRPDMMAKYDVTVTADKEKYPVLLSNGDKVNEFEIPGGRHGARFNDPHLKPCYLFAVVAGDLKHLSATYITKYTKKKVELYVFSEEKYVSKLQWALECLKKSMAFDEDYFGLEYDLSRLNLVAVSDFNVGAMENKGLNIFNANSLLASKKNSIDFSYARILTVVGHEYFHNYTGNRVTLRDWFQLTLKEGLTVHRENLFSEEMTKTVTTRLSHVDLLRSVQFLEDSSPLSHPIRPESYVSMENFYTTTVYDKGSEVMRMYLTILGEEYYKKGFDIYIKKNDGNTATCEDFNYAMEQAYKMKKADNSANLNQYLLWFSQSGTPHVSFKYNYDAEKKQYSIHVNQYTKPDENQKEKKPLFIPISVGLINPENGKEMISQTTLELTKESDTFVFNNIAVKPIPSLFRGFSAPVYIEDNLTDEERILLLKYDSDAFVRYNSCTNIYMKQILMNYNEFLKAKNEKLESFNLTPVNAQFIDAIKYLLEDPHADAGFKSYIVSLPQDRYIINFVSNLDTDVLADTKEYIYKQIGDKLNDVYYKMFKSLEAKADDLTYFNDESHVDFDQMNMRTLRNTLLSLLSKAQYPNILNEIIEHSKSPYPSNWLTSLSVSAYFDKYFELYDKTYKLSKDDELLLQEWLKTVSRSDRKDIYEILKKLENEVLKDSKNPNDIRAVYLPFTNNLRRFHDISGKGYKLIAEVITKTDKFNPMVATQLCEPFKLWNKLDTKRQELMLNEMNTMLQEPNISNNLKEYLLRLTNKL
Experiment: P. falciparum M1AAP inhibitors, biochemical, fluorogenic H-Leu-NHMec substrate, 1536-well (AID 1445)

Row | Compound | IC50 [µM]
1 | COC1=CC(/C=C(\C#N)c2nc3ccccc3s2)C=C([N+](=O)[O-])C1=O (centres undefined) [MLS000682120] | 11
2 | Cc1nnc(=O)[nH]c1N=NCc1cccs1 [thiophene-2-carbaldehyde (6-methyl-3-oxo-2,3-dihydro-1,2,4-triazin-5-yl)hydrazone] | 25.8
3 | CN1CCN(CC2=c3oc(=O)c(=C4C=CCC=N4)cc3C=CC2=O)CC1 [(3E)-8-[(4-methylpiperazin-1-yl)methyl]-3-(1H-pyridin-2-ylidene)chromene-2,7-dione] | 52.2
4 | CCOC(=O)C1C(=O)C(=Cc2ccc(OCC(=O)O)c(OCC)c2)SC1=Nc1ccc(C)cc1 (centres undefined) [(2-ethoxy-4-{[4-(ethoxycarbonyl)-5-[(4-methylphenyl)amino]-3-oxo-2(3H)-thienylidene]methyl}phenoxy)acetic acid] | 48.6
5 | C/C(Cl)=C\CN1C(=O)C(=NNC(N)=S)c2ccccc21 [[(Z)-[1-[(E)-3-chlorobut-2-enyl]-2-oxoindol-3-ylidene]amino]thiourea] | 63.5
6 | O=[N+]([O-])c1cc(Br)c(O)c(CN=Nc2nnnn2-c2cccc3ccccc23)c1 [(6E)-2-bromo-6-[[2-(1-naphthalen-1-yltetrazol-5-yl)hydrazinyl]methylidene]-4-nitrocyclohexa-2,4-dien-1-one] | 6.79
7 | C=c1c(C#N)c2[nH]c(N)c(C#N)c(C)c-2c1=Cc1ccc(-c2ccccc2C(=O)O)o1 [SMR000277284] | 52.2
8 | C=c1[nH]n(-c2nnc(C)c(=O)[nH]2)c(=O)c1=Cc1ccc(N(CC)CC)cc1 [3-{4-[1-(4-Diethylamino-phenyl)-meth-(Z)-ylidene]-3-methyl-5-oxo-4,5-dihydro-pyrazol-1-yl}-6-methyl-4H -[1,2,4]triazin-5-one] | 42.6
9 | Cc1[nH]n(-c2ccccc2)c(=O)c1C=Nc1ccccc1O | 12.8
10 | COC1=CC(C=NNC(=O)C(Cc2c[nH]c3ccccc23)NC(=O)OCc2ccccc2)C=C([N+](=O)[O-])C1=O (centres undefined) [benzyl N-[3-(1H-indol-3-yl)-1-[2-[(E)-(3-methoxy-5-nitro-4-oxocyclohexa-2,5-dien-1-ylidene)methyl]hydrazinyl]-1-oxopropan-2-yl]carbamate] | 4.75
11 | Cc1cc(C(=O)NN=CC2C=C(Cl)C=C([N+](=O)[O-])C2=O)[nH]n1 (centres undefined) [SMR000414694] | 52.3
12 | COc1ccc(-c2c/c(=N\CCCCCC(=O)O)c3cc(C)ccc3o2)cc1 [[2-(4-methoxyphenyl)-6-methyl-chromen-4-ylidene]-(6-oxidanyl-6-oxidanylidene-hexyl)azanium;perchlorate] | 7.22
13 | CCOC(=O)C1C(CC)=Nc2ccccc2N=C1NS(=O)(=O)c1cc(Br)ccc1Br (centres undefined) [MLS000775637] | 30.3
14 | COc1ccc(-c2n[nH]c3c2C2(C(=O)N(CC(=O)O)c4ccccc42)C(C#N)C(=N)O3)cc1OC (centres undefined) [2-[6-amino-5-cyano-3-(3,4-dimethoxyphenyl)-2'-oxo-1'-spiro[2H-pyrano[2,3-c]pyrazole-4,3'-indole]yl]acetic acid] | 43.3
15 | CN1C(=O)/C(=C/c2ccc(-c3ccccc3[N+](=O)[O-])o2)S/C1=N/c1ccc(Cl)c(C(=O)O)c1 [2-Chloro-5-[3-methyl-5-[1-[5-(2-nitro-phenyl)-furan-2-yl]-meth-(Z)-ylidene]-4-oxo-thiazolidin-(2Z)-ylideneamino]-benzoic acid] | 16.1
16 | O=C1NC(=S)NC(=O)C1N=Nc1ccc(-c2ccccc2)cc1[N+](=O)[O-] [5-[(2-nitro-4-phenylphenyl)hydrazinylidene]-2-sulfanylidene-1,3-diazinane-4,6-dione] | 10.5
17 | Cc1c(N2C(=O)C(=O)C(C(=O)c3ccc(Br)cc3)C2c2cccnc2)c(=O)n(-c2ccccc2)n1C (centres undefined) [MLS000724383] | 38.1
18 | O=C1OC(C(C=Nc2cc(Cl)ccc2O)[N+](=O)[O-])c2ccccc21 (centres undefined) [3-[(E)-2-[(5-chloranyl-2-oxidanyl-phenyl)amino]-1-nitro-ethenyl]-3H-2-benzofuran-1-one] | 48.8
19 | CS(=O)(=O)Nc1nc2n(n1)C(c1ccccc1)CC(c1ccc(Br)cc1)=N2 (centres undefined) | 45.3
20 | COc1ccccc1C1CC(c2ccc(Cl)cc2)=Nc2nc(-n3c(O)ccc3O)nn21 (centres undefined) [MLS000040652] | 31.3
21 | O=C(O)c1ccc(-c2ccc(CN=Nc3ccc([N+](=O)[O-])cc3)o2)cc1 | 43.1
22 | C=c1[nH]n(-c2ccc(Cl)c(C(=O)O)c2)c(=O)c1=Cc1ccc(-c2ccc(C(=O)O)cc2)o1 [SMR000312901] | 2.41

Row | Compound | IC50 [µM]
23 | O=C(O)Cc1sc(N[N-][CH+]c2ccc(-c3ccc(Cl)c([N+](=O)[O-])c3)o2)nc1O [MLS000689975] | 54.1
24 | COc1ccc(CN=Nc2nc(O)c(CC(=O)O)s2)cc1OCc1ccc(Cl)cc1 [2-[2-[2-[[3-[(4-chlorophenyl)methoxy]-4-methoxy-phenyl]methylidene]hydrazinyl]-4-oxidanylidene-1,3-thiazol-5-yl]ethanoic acid] | 66.7
25 | COC1=CC(C=NNC(=O)[C@H](Cc2c[nH]c3ccccc23)NC(=O)OCC(C)C)C=C([N+](=O)[O-])C1=O (stereo partly drawn) [N-[(2S)-3-(1H-indol-3-yl)-1-[[(E)-(3-methoxy-5-nitro-4-oxo-1-cyclohexa-2,5-dienylidene)methyl]hydrazo]-1-oxopropan-2-yl]carbamic acid 2-methylpropyl ester] | 12.2
26 | O=C(O)COc1ccccc1CN=Nc1ccc(S(=O)(=O)Nc2ccc(Cl)cc2)cc1[N+](=O)[O-] [MLS000774437] | 38.9
27 | Cc1ccc2c(c1C)Nc1c(c(=O)c1=O)N2 [SMR000459860] | 48.5
28 | COc1cc(C=Nn2c(O)csc2=S)cc(Br)c1O [3-[[(Z)-(3-bromo-5-methoxy-4-oxo-1-cyclohexa-2,5-dienylidene)methyl]amino]-2-sulfanylidene-4-thiazolidinone] | 107
29 | CCOC(=O)C1C(=O)C(=Cc2ccc(OCC(=O)O)c(OCC)c2)SC1=Nc1ccc(OC)cc1 (centres undefined) [MLS000704394] | 36.3
30 | CCOC(=O)C1C(=O)C(=Cc2ccc(OCC(=O)O)c(OC)c2)SC1=Nc1ccc(OC)cc1 (centres undefined) [2-[4-[(Z)-[4-ethoxycarbonyl-5-[(4-methoxyphenyl)amino]-3-oxidanylidene-thiophen-2-ylidene]methyl]-2-methoxy-phenoxy]ethanoic acid] | 87.3
31 | CCc1ccc2oc(-c3ccc(OC)cc3)c/c(=N\c3cccc(C(=O)O)c3)c2c1 [(3-carboxyphenyl)-[6-ethyl-2-(4-methoxyphenyl)-1-benzopyran-4-ylidene]ammonium;tetrafluoroborate] | 11.9
32 | O=C1CC(c2ccco2)CC(=O)C1=CNc1cc(Cl)ccc1O (centres undefined) [MLS000037985] | 5.58
33 | COC1=CC(C=NNC(=O)C(Cc2c[nH]c3ccccc23)NC(=O)OCC(C)C)C=C([N+](=O)[O-])C1=O (centres undefined) [2-methylpropyl N-[3-(1H-indol-3-yl)-1-[2-[(E)-(3-methoxy-5-nitro-4-oxidanylidene-cyclohexa-2,5-dien-1-ylidene)methyl]hydrazinyl]-1-oxidanylidene-propan-2-yl]carbamate] | 16.7
34 | N#CC(=NNc1ccc(Cl)cc1)C(=O)c1ccccc1 [2-[(4-chlorophenyl)hydrazono]-3-oxo-3-phenylpropanenitrile] | 106
35 | O=C(Cn1cnc([N+](=O)[O-])n1)N/N=C/C1C=C(Cl)C=CC1=O (centres undefined) [SMR000312480] | 13.3
36 | COc1cc(Br)c(C2c3c(-c4cccnc4)n[nH]c3OC(=N)C2C#N)cc1OC (centres undefined) [SMR000114618] | 44.6
37 | O=C1NC(=S)NC(=O)C1N=Nc1cc2c(cc1[N+](=O)[O-])OCO2 [5-[(6-nitro-1,3-benzodioxol-5-yl)hydrazinylidene]-2-sulfanylidene-1,3-diazinane-4,6-dione] | 26.9
38 | CNC(=S)N/N=C1\C(=O)Nc2ccccc21 [1-methyl-3-[(2-oxoindol-3-yl)amino]thiourea] | 47.9
39 | NC(=NNC=c1ccc(=C2C=CC(=O)C(C(=O)O)=C2)o1)N[N+](=O)[O-] [5-(5-{2-[amino(nitroimino)methyl]carbonohydrazonoyl}-2-furyl)-2-hydroxybenzoic acid] | 10.2
40 | CC(NNC(=O)c1ccccc1O)=C1C(=O)c2ccccc2C1=O [MLS000523164] | 12.8
41 | CC1=CC([N+](=O)[O-])=CC(/C=N/NC(=O)C2COc3ccccc3O2)C1=O (centres undefined) [N'-[(E)-(5-methyl-3-nitro-6-oxocyclohexa-2,4-dien-1-ylidene)methyl]-2,3-dihydro-1,4-benzodioxine-3-carbohydrazide] | 3.05
42 | Cc1cc(=O)[nH]c(N=NCc2c(O)n(-c3ccccc3)c(=O)c3ccccc23)n1 [SMR000221270] | 47
43 | Cc1ccc(O)c(NC=C2C(=O)c3ccccc3C2=O)c1 [MLS000104939] | 71.9
44 | COc1ccc(-c2c/c(=N\CCC(=O)O)c3cc(C)ccc3o2)cc1 | 38.9
